Among the data in paper PMC9732455, “PCW-A1001, AI-assisted de novo design approach to design a selective inhibitor for FLT-3(D835Y) in acute myeloid leukemia” (Frontiers in Molecular Biosciences, 2022) are IC50 values, retold here.

The target in test [1] is T1, FLT-3 WT (Homo sapiens, UniProt P36888).
T1 construct: gene FLT3
T1 sequence (P36888 27-993): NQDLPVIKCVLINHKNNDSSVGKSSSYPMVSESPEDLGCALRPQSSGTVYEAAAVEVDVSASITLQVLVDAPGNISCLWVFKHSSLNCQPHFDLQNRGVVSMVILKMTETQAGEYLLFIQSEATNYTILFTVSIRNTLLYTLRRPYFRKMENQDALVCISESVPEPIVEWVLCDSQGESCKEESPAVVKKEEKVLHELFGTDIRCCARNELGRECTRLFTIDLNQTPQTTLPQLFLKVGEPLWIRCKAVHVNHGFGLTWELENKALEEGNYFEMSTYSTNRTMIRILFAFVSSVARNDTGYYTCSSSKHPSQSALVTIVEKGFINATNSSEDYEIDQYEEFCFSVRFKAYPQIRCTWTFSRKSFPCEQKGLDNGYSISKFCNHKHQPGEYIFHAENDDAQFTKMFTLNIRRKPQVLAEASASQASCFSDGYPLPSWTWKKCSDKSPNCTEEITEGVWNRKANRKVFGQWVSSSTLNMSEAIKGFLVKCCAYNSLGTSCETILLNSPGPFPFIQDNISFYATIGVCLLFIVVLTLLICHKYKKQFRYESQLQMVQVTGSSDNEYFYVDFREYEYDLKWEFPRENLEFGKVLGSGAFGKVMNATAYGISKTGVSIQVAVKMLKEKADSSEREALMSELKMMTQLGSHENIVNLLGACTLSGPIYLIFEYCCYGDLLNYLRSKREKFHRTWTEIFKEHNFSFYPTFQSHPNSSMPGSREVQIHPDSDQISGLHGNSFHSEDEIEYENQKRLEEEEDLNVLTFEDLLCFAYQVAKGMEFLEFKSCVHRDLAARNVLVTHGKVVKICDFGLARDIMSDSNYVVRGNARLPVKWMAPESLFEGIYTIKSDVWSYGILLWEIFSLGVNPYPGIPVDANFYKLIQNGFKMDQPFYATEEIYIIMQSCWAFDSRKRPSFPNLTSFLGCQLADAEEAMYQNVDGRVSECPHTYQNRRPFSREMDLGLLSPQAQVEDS
The test is described as follows: in vitro kinase assay (ThermoFisher), dose-response. The test is classed as biochemical.

Test [2] addresses T2, FLT-3 (D835Y) (Homo sapiens, UniProt P36888, D835Y).
T2 construct: gene FLT3
T2 sequence (P36888 564-993 D835Y limits assumed): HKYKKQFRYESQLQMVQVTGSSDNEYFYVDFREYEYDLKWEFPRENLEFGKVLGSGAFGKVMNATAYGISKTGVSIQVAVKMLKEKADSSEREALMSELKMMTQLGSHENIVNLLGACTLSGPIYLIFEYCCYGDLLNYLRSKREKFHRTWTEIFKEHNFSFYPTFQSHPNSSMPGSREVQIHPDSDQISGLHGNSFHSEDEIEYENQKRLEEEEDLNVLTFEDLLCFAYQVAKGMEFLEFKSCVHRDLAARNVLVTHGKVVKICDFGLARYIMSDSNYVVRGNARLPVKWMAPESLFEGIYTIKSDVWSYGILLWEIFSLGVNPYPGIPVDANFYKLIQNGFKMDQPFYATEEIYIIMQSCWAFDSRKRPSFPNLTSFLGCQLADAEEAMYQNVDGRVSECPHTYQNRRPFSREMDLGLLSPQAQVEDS
Described as above. The test is classed as biochemical.

As for `CC(C)(C)c1ccc(C(=O)Nc2ccc(C(N)=O)c(NC3CCCNC3)c2)cc1` (centres unmarked) [PCW-A1001], the IC50 in test [1] stood at 2540 nM; in test [2], 764 nM.

As usually defined, the IC50 is the concentration that gives 50% inhibition. Read a high IC50 as weaker potency.
